From ChEMBL document CHEMBL1201862, “PubChem BioAssay data set” (2004) come the findings set out here.

The structures appear in SMILES notation.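 Exposure lasted 48 hours, with cells grown in 96-well plates and compounds tested at five concentrations. GI50 is the concentration that inhibits growth by half.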 Activity calls are given as the source filed them. Rule as the data show it: active = GI50 up to about 1.1 µM and inactive = higher. Where a SMILES comes first, the peptide text is derived from it. [ ]: non-standard residue; d: D form. The star is where a group is joined. Bn2Val = CC(C)[C@@H](C(=O)*)N(Cc1ccccc1)Cc1ccccc1; NH(4-F-benzyl) = Fc1ccc(CN*)cc1; NMeV = CN[C@H](C(=O)O)C(C)C; dNMeA = CN[C@H](C)C(=O)O

Test systems include T47D; DU-145; SF-268; MDA-MB-435; HOP-62; A549; LOX IMVI; KM12; BT-549; COLO 205; A498; OVCAR-4; SF-539; SW-620; SNB-75; SK-MEL-5; HT-29; SK-MEL-28; NCI-H522; PC-3.
Holding throughout (test): NCI-60 cell line screen, 48 h

Consider `CC1OC(OC2C(CO)OC(O[C@H]3CC[C@@]4(C)C(=CC[C@H]5[C@@H]6C[C@@H]7O[C@](O)(CC[C@H](C)COC8OC(CO)C(O)C(O)C8O)[C@@H](C)[C@@H]7[C@@]6(C)CC[C@@H]54)C3)C(OC3OC(C)C(O)C(O)C3O)C2O)C(O)C(O)C1O` (stereo partly drawn), for which the GI50 was 3.51 µM (inactive) in the test on T47D; 2.35 µM (inactive) in the test with DU-145; 3.36 µM (inactive) in the test on SF-268; 2.07 µM (inactive) in the test on MDA-MB-435; 2.18 µM (inactive) in the test with HOP-62; 2.35 µM (inactive) with A549. Also, the GI50 in the test with LOX IMVI is 2.17 µM (inactive); with KM12, 2.36 µM (inactive); in the test on BT-549, 4.48 µM (inactive); in the test with COLO 205 it was 5.01 µM (inactive); in the test with A498, 26.7 µM (inactive); with OVCAR-4 it was 7.96 µM (inactive). The GI50 is 2.82 µM (inactive) in the test on SF-539; 0.644 µM (active) in the test on SW-620; 2.16 µM (inactive) in the test with SNB-75; 7.1 µM (inactive) in the test on SK-MEL-5; 11.9 µM (inactive) in the test on HT-29; 2.94 µM (inactive) in the test with SK-MEL-28. For the same molecule, the GI50 with NCI-H522 was 2.88 µM (inactive); with PC-3, 4.48 µM (inactive).
For `O=C1c2c(Cl)c(Cl)c(Cl)c(Cl)c2C(=O)N1CCN(c1c(Cl)ssc1=O)c1c(Cl)ssc1=O`, the GI50 in the test on T47D is 17.1 µM (inactive); with DU-145, 19 µM (inactive); in the test on SF-268, 71.9 µM (inactive); in the test on MDA-MB-435 it was 19.8 µM (inactive); in the test on HOP-62, > 100 µM (inactive); in the test on A549, > 100 µM (inactive). Moreover, the GI50 in the test on LOX IMVI was 21.9 µM (inactive); in the test on KM12 it was 54.8 µM (inactive); with BT-549, 30.9 µM (inactive); in the test with COLO 205 it was 18.2 µM (inactive); in the test on A498, > 100 µM (inactive); in the test on OVCAR-4, 18.2 µM (inactive). The GI50 with SF-539 was 19.1 µM (inactive); with SW-620 it was 22.5 µM (inactive); in the test on SNB-75 it was 31.6 µM (inactive); in the test with SK-MEL-5, > 100 µM (inactive); in the test on HT-29, 19.5 µM (inactive); with SK-MEL-28, 58.3 µM (inactive). The GI50 was 23.2 µM (inactive) in the test with NCI-H522 and 22.9 µM (inactive) in the test with PC-3.
With `OC12CC3c4ccccc4NC3C3Oc4cccc5c4C31CCN(CC1CC1)C2C5` (stereo not drawn), the GI50 in the test on T47D was 18.9 µM (inactive); with DU-145 it was 17.1 µM (inactive); in the test with SF-268, 18.2 µM (inactive); in the test with MDA-MB-435, 17.9 µM (inactive); in the test with HOP-62 it was 18.5 µM (inactive); in the test with A549, 18.4 µM (inactive). The GI50 is 15.9 µM (inactive) with LOX IMVI; 18.8 µM (inactive) with KM12; 16.3 µM (inactive) in the test on BT-549; 20.9 µM (inactive) in the test on COLO 205; 17.9 µM (inactive) in the test with A498; 20.7 µM (inactive) with OVCAR-4. The GI50 in the test with SF-539 is 26.5 µM (inactive); in the test with SW-620, 11.8 µM (inactive); with SNB-75 it was 15.3 µM (inactive); in the test on SK-MEL-5, 16.8 µM (inactive); in the test on HT-29 it was 15.5 µM (inactive); in the test with SK-MEL-28 it was 13.8 µM (inactive). Moreover, the values for the GI50 with NCI-H522 and in the test with PC-3 were 21.7 µM (inactive) and 16.7 µM (inactive), respectively.
For `Oc1ccc(NCc2cc(O)ccc2O)cc1`, the GI50 in the test with T47D is 19.6 µM (inactive); in the test on DU-145, 18.5 µM (inactive); with SF-268 it was 17.2 µM (inactive); in the test on MDA-MB-435 it was 16.4 µM (inactive); in the test with HOP-62, 18.7 µM (inactive); in the test with A549, 53.1 µM (inactive). The GI50 in the test with LOX IMVI was 17.1 µM (inactive); with KM12, 21.7 µM (inactive); in the test with BT-549, 12.7 µM (inactive); in the test on COLO 205, 23.3 µM (inactive); with A498 it was 28.4 µM (inactive); in the test with OVCAR-4, 16.5 µM (inactive). Moreover, the GI50 in the test with SF-539 is 23.2 µM (inactive); in the test on SW-620, 11.5 µM (inactive); with SNB-75, 17.2 µM (inactive); with SK-MEL-5, 16.9 µM (inactive); with HT-29, 22.6 µM (inactive); in the test on SK-MEL-28, 22.3 µM (inactive). The GI50 in the test with NCI-H522 is 2.06 µM (inactive); in the test with PC-3, 14.9 µM (inactive).
For `CC(C)[C@H](NC(=O)[C@H](C(C)C)N(Cc1ccccc1)Cc1ccccc1)C(=O)N(C)[C@H](C(=O)N1CCC[C@H]1C(=O)N(C)[C@H](C)C(=O)NCc1ccc(F)cc1)C(C)C` (Bn2Val-V[NMeV]P[dNMeA]-{NH(4-F-benzyl)}), the GI50 is 3.82 µM (inactive) in the test on T47D; 4.88 µM (inactive) with DU-145; 3.19 µM (inactive) with SF-268; 3.67 µM (inactive) with MDA-MB-435; 5.47 µM (inactive) in the test on HOP-62; 3.3 µM (inactive) in the test with A549. For the same molecule, the GI50 was 1.85 µM (inactive) in the test on LOX IMVI; 4.24 µM (inactive) with KM12; 4.06 µM (inactive) with BT-549; 1.74 µM (inactive) in the test with COLO 205; 2.42 µM (inactive) in the test on A498; 4.28 µM (inactive) with OVCAR-4. For the same molecule, the GI50 in the test on SF-539 is 2.71 µM (inactive); with SW-620, 4.25 µM (inactive); with SNB-75, 4.07 µM (inactive); in the test with SK-MEL-5 it was 2.22 µM (inactive); with HT-29, 1.95 µM (inactive); in the test on SK-MEL-28 it was 7.29 µM (inactive). For the same molecule, the GI50 was 3.01 µM (inactive) with NCI-H522 and 3.18 µM (inactive) in the test on PC-3.
Regarding `COC(=O)c1c(C)cccc1C1CN=NC12Cc1ccccc1C2=O` (stereo not drawn), the GI50 was 38.1 µM (inactive) with T47D; > 100 µM (inactive) in the test on DU-145; > 53 µM (inactive) with SF-268; > 82 µM (inactive) in the test with MDA-MB-435; > 100 µM (inactive) in the test with HOP-62; > 82.6 µM (inactive) with A549. Besides, the GI50 in the test on LOX IMVI was 31.2 µM (inactive); with KM12, > 78 µM (inactive); in the test on BT-549, 54.5 µM (inactive); in the test with COLO 205 it was 60.8 µM (inactive); in the test on A498 it was 98.6 µM (inactive); in the test with OVCAR-4 it was > 92.3 µM (inactive). Moreover, the GI50 in the test on SF-539 was > 100 µM (inactive); in the test on SW-620, > 100 µM (inactive); in the test with SNB-75, 65.2 µM (inactive); in the test with SK-MEL-5, 37.4 µM (inactive); in the test on HT-29, > 100 µM (inactive); with SK-MEL-28, > 71.1 µM (inactive). For the same molecule, the GI50 is 43.5 µM (inactive) in the test with NCI-H522 and 78.5 µM (inactive) in the test with PC-3.
Turning to `O=C(/C=C/c1ccc(Cl)cc1)c1nc2ccccc2[nH]1`, the GI50 in the test on T47D was 5.78 µM (inactive); in the test with DU-145 it was 12.3 µM (inactive); in the test with SF-268 it was 14.2 µM (inactive); with MDA-MB-435, 12.2 µM (inactive); in the test on HOP-62, 17.6 µM (inactive); in the test with A549 it was 25.4 µM (inactive). Also, the GI50 with LOX IMVI was 15.2 µM (inactive); with KM12 it was 1.6 µM (inactive); in the test on BT-549 it was 32.9 µM (inactive); in the test on COLO 205 it was 16.6 µM (inactive); with A498 it was 37.8 µM (inactive); with OVCAR-4, 19 µM (inactive). Moreover, the GI50 in the test with SF-539 is 6.98 µM (inactive); in the test with SW-620, 13.4 µM (inactive); in the test on SNB-75 it was 11.7 µM (inactive); in the test on SK-MEL-5, 40.2 µM (inactive); in the test with HT-29 it was 21.5 µM (inactive); with SK-MEL-28 it was 32.4 µM (inactive). Also, the GI50 in the test on NCI-H522 was 28.2 µM (inactive); with PC-3, 19.9 µM (inactive).
For `O=C(NCCCCl)c1c(O)c2ccccc2[nH]c1=O`, the GI50 in the test on T47D was > 73.3 µM (inactive); in the test on DU-145, > 100 µM (inactive); in the test on SF-268, > 72.1 µM (inactive); in the test with MDA-MB-435, > 100 µM (inactive); in the test on HOP-62 it was > 50.6 µM (inactive); in the test on A549, > 100 µM (inactive). Besides, the GI50 with LOX IMVI was > 100 µM (inactive); in the test on KM12, > 100 µM (inactive); in the test with BT-549, > 78 µM (inactive); with COLO 205 it was > 100 µM (inactive); with A498, 32.4 µM (inactive); with OVCAR-4, > 100 µM (inactive). Moreover, the GI50 with SF-539 is > 54 µM (inactive); in the test on SW-620 it was > 100 µM (inactive); with SNB-75, > 54.5 µM (inactive); in the test with SK-MEL-5, > 100 µM (inactive); in the test with HT-29, > 100 µM (inactive); in the test with SK-MEL-28, > 100 µM (inactive). Also, the GI50 in the test with NCI-H522 was > 65.5 µM (inactive); with PC-3 it was > 100 µM (inactive).
Turning to `CN(C)c1c(C2CC(O)C(CO)O2)c(=O)c1=O` (stereo not drawn), the GI50 in the test with T47D, in the test on DU-145, in the test with SF-268, in the test with MDA-MB-435, in the test with HOP-62 and in the test with A549 was > 100 µM (inactive) in each case. The GI50 with LOX IMVI, in the test on KM12, in the test on BT-549, in the test on A498, in the test on OVCAR-4 and in the test on SF-539 was > 100 µM (inactive) in each case. Moreover, the GI50 in the test on SW-620, in the test with SNB-75, in the test with HT-29, in the test on SK-MEL-28, with NCI-H522 and in the test on PC-3 was > 100 µM (inactive) each time.
As for `Nc1ncnc2c1nc(Cl)n2C1OC(CO)C(O)C1O` (stereo not drawn), the GI50 is 0.574 µM (active) in the test on T47D; 0.714 µM (active) with DU-145; 12.2 µM (inactive) in the test on SF-268; 2.21 µM (inactive) with MDA-MB-435; 8.28 µM (inactive) in the test on HOP-62; 0.991 µM (active) with A549. For the same molecule, the GI50 with LOX IMVI is 0.424 µM (active); in the test with KM12 it was 2.04 µM (inactive); with BT-549 it was 3.15 µM (inactive); in the test on COLO 205, 1.11 µM (active); in the test on A498, 4.52 µM (inactive); in the test with OVCAR-4, 5.07 µM (inactive). Also, the GI50 was 4.69 µM (inactive) in the test on SF-539; 1.55 µM (inactive) in the test on SW-620; 1.49 µM (inactive) with SNB-75; 3.25 µM (inactive) with SK-MEL-5; 0.649 µM (active) in the test on HT-29; > 45.5 µM (inactive) in the test with SK-MEL-28. In addition, the values for the GI50 with NCI-H522 and in the test on PC-3 were 0.546 µM (active) and 1.44 µM (inactive), respectively.
